Numbered stars: 1 amine (or outer) side, 2 acyl side, 3 side chain; on linkers, the order of the positions; unused ones are H or OH. Bridge positions count the residues as written; N and C are the ends. Peptide text beside a SMILES is read from it. TBMB = c1c(C[*:1])cc(C[*:3])cc1C[*:2]
What was measured:
Human thrombin = Human thrombin (Homo sapiens, UniProt P00734); assay: Inhibition of paralogous protease thrombin; type: biochemical
Description: (§1) The target specificity of the isolated bicyclic peptide inhibitors was assessed by determining the inhibition of trypsin-like human serine proteases of the class S1A which comprises 79 members (Yousef, et al, Biochem Biophys Res Commun 2003, 305 (1), 28-36). The panel of proteases included hfXIa which shares the highest sequence identity with hPK (69%) as well as the structurally less related but vital human serine proteases thrombin (36%), plasmin (34% sequence identity with hPK) and factor XIIa (35%).

[1] = molecular target: T1, Human factor XIIa (hfXIIa) (Homo sapiens, UniProt P00748); assay: Inhibition of paralogous protease factor XIIa; type: biochemical
T1 sequence (P00748 373-615 limits assumed): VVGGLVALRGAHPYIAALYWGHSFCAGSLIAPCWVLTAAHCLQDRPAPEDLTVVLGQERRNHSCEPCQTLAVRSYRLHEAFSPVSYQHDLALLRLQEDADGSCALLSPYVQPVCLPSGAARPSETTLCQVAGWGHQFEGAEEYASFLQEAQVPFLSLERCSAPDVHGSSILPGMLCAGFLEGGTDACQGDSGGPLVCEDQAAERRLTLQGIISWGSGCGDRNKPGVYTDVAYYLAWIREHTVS
Description: as §1

[2] = molecular target: human plasma kallikrein (hPK) (Homo sapiens, UniProt P03952); assay: Enzyme inhibition assay, human plasma kallikrein
Sequence of human plasma kallikrein (hPK) (P03952 20-638): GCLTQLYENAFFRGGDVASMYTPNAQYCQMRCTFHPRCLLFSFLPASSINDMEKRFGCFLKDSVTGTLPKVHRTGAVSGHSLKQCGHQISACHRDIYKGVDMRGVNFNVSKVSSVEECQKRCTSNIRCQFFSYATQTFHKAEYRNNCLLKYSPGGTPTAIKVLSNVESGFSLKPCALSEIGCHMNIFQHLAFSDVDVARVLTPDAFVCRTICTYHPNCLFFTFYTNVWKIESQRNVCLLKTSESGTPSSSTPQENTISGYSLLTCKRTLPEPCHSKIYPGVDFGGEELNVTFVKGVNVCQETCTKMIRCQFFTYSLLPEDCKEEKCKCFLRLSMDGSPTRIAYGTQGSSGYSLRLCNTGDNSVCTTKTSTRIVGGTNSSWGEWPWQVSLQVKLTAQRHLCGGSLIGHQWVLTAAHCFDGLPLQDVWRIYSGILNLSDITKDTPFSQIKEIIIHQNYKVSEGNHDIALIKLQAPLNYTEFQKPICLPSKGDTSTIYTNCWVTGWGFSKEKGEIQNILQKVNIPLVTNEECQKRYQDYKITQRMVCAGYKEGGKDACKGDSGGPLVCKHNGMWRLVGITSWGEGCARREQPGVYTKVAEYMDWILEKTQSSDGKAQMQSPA

| Structure (SMILES) | IC50 (Human thrombin) | IC50 [1] | Ki [2] |
| --- | --- | --- | --- |
| CC(C)C[C@@H]1NC(=O)[C@@H]2CSCc3cc(cc(c3)CSC[C@@H](C(=O)N[C@@H](C)C(N)=O)NC(=O)[C@H](Cc3ccc(O)cc3)NC(=O)[C@H](CC(=O)O)NC(=O)[C@H](CCC(N)=O)NC(=O)[C@H](Cc3c[nH]cn3)NC1=O)CSC[C@H](NC(=O)[C@H](C)N)C(=O)N[C@@H](CO)C(=O)N[C@@H](Cc1c[nH]c3ccccc13)C(=O)N1CCC[C@H]1C(=O)N[C@@H](Cc1ccc(O)cc1)C(=O)N[C@@H](CCCNC(=N)N)C(=O)N2 [Peptide 06-61] (H-ACSWPYRCLHQDYCA-NH2; linker 2-8-14 via TBMB) | > 10 µM | > 10 µM | 0.0058 µM |
| CC(C)C[C@@H]1NC(=O)[C@H](CO)NC(=O)[C@H]([C@@H](C)O)NC(=O)[C@H]([C@@H](C)O)NC(=O)[C@H](CC(C)C)NC(=O)[C@@H]2CSCc3cc(cc(c3)CSC[C@@H](C(=O)N[C@@H](C)C(N)=O)NC1=O)CSC[C@H](NC(=O)[C@H](C)N)C(=O)N[C@@H](CCCNC(=N)N)C(=O)N[C@@H](Cc1c[nH]c3ccccc13)C(=O)N1CCC[C@H]1C(=O)N[C@@H](C)C(=O)N[C@@H](CCCNC(=N)N)C(=O)N2 [Peptide 06-59] (H-ACRWPARCLTTSLCA-NH2; linker 2-8-14 via TBMB) | > 10 µM | > 10 µM | 0.0005 µM |
| C[C@H](N)C(=O)N[C@H]1CSCc2cc3cc(c2)CSC[C@H](NC(=O)[C@H](CCCNC(=N)N)NC(=O)[C@H](C)NC(=O)[C@@H]2CCCN2C(=O)[C@H](Cc2c[nH]c4ccccc24)NC(=O)[C@H]([C@@H](C)O)NC1=O)C(=O)N[C@@H]([C@@H](C)O)C(=O)N[C@@H](Cc1c[nH]cn1)C(=O)N[C@@H](CCC(N)=O)C(=O)N[C@@H](CC(N)=O)C(=O)N[C@@H](Cc1c[nH]c2ccccc12)C(=O)N[C@H](C(=O)N[C@@H](C)C(N)=O)CSC3 [Peptide 06-09] (H-ACTWPARCTHQNWCA-NH2; linker 2-8-14 via TBMB) | > 10 µM | > 10 µM | 0.0012 µM |
| CC(C)C[C@@H]1NC(=O)[C@H](CC(=O)O)NC(=O)[C@H](CCC(N)=O)NC(=O)[C@H](Cc2c[nH]cn2)NC(=O)[C@H](CC(N)=O)NC(=O)[C@@H]2CSCc3cc(cc(c3)CSC[C@@H](C(=O)N[C@@H](C)C(N)=O)NC1=O)CSC[C@H](NC(=O)[C@H](C)N)C(=O)N[C@@H](CO)C(=O)N[C@@H](Cc1c[nH]c3ccccc13)C(=O)N1CCC[C@H]1C(=O)N[C@@H](C)C(=O)N[C@@H](CCCNC(=N)N)C(=O)N2 [Peptide 06-57] (H-ACSWPARCNHQDLCA-NH2; linker 2-8-14 via TBMB) | > 10 µM | > 10 µM | 0.0004 µM |
| CC(C)C[C@@H]1NC(=O)[C@@H]2CSCc3cc(cc(c3)CSC[C@@H](C(=O)N[C@@H](C)C(N)=O)NC(=O)[C@H](CC(C)C)NC(=O)[C@H](CC(=O)O)NC(=O)[C@H]([C@@H](C)O)NC(=O)[C@H](Cc3c[nH]cn3)NC1=O)CSC[C@H](NC(=O)[C@H](C)N)C(=O)N[C@@H](CC(N)=O)C(=O)N[C@@H](Cc1c[nH]c3ccccc13)C(=O)N1CCC[C@H]1C(=O)N[C@@H](Cc1ccc(O)cc1)C(=O)N[C@@H](CCCNC(=N)N)C(=O)N2 [Peptide 06-157] (H-ACNWPYRCLHTDLCA-NH2; linker 2-8-14 via TBMB) | > 10 µM | > 10 µM | 0.0033 µM |
| CSCC[C@@H]1NC(=O)[C@H](CCC(=O)O)NC(=O)[C@H](CCC(N)=O)NC(=O)[C@H](Cc2c[nH]cn2)NC(=O)[C@H]([C@@H](C)O)NC(=O)[C@@H]2CSCc3cc(cc(c3)CSC[C@@H](C(=O)N[C@@H](C)C(N)=O)NC1=O)CSC[C@H](NC(=O)[C@H](C)N)C(=O)NCC(=O)N[C@@H](C(C)C)C(=O)N1CCC[C@H]1C(=O)N[C@@H](Cc1ccc(O)cc1)C(=O)N[C@@H](CCCNC(=N)N)C(=O)N2 [06-64 T] (H-ACGVPYRCTHQEMCA-NH2; linker 2-8-14 via TBMB) | > 10 µM | > 10 µM | 0.0069 µM |

Reference: patent US9994617B2, “Modulation of structured polypeptide specificity” (BICYCLE THERAPEUTICS LIMITED, priority 2011, dated 2018)
